Test results reported in patent US12085575B2, “Compositions and methods for detecting proteinopathies” (BOARD OF SUPERVISORS OF LOUISIANA STATE UNIVERSITY AND …, priority 2011, dated 2024).
Residues, ends and D or L forms follow the SMILES beside them. *: point of attachment. Cbz = O=C(OCc1ccccc1)*

Test system: Mfn2
Test: Mfn2 modification and degradation in A-T/LV shRNA cells treated with mitochondrial depolarizing agents
Type: cell-based, human
Details: ISG15-silenced A-T cells; CCCP 25 uM with MG132 or Bafl 100 nM, 24 hr
Experimental: Immunoblotting Analysis of Mitochondrial Proteins—Mitochondria were isolated from A-T/LV control and ISG15 shRNA cells using the Miochondrial Isolation Kit (Thermo Scientific Company, 89874). The Dounce homogenization protocol described by the manufacturer was used to isolate mitochondria from cells. Mitochondrial pellets were resuspended in lysis buffer containing 50 mM Tris pH 7.5 and 4% (v/v) SDS. Samples were homogenized and boiled for 10 min. Lysates containing equal protein were then mixed with 6× Laemmli SDS sample buffer (3× final concentration). Samples were boiled again and mitochondrial proteins were analyzed by SDS-PAGE. Immunoblotting analyses using either anti-ISG15 (raised against human ISG15) (20), anti-ubiquitin (gift from Dr. Arthur Haas, at LSUHSC—New Orleans), or anti-mitofusin 2 (Abcam, ab88569) antibodies were carried out using the ECL Western procedure (Pierce, 34076) and the BioRad VersaDoc Imaging System (BioRad). Immunoblotting Analysis of HA Polyubiquitylated Proteins in Cells: Cells were transfected with HA-ubiquitin using the PolyFect transfection reagent (Qiagen, 301105). Twenty four hours after transfection, mitochondria were isolated as described above. Mitochondrial lysis, SDS-PAGE, and immunoblotting analysis to detect HA-ubiquitin conjugated proteins using anti-HA antibodies were carried out as described above. Immunoblotting Analysis of Mfn2 in Cells: Cells were lysed in lysis buffer containing 50 mM Tris-HCl, pH 7.5, 2% SDS, and protease inhibitor cocktail. Lysates were sonicated, boiled, and cleared by centrifugation. Lysates containing equal protein were then mixed with 6× Laemmli SDS sample buffer (3× final concentration). Samples were boiled again and proteins were separated by 15% SDS-PAGE. Immunoblotting analysis was carried out using anti-Mfn2 antibodies (Abcam) as described above. Intensity of the Mfn2 bands was quantitated using BioRad Quantity One software. Statistical analysis—Statistical analysis was carried out using GraphPad software.
Many outer mitochondrial membrane (OMM) proteins are ubiquitylated and degraded via the 26S proteasome prior to mitophagy in cells treated with the mitochondrial depolarizing agents (28,29). To test whether ISG15 inhibits polyubiquitylation of OMM proteins, we assessed the fate of Mfn2, an OMM protein and proteasome substrate, in A-T/LV-control and A-T/LV-ISG15-silenced cells treated with two different mitochondrial depolarizing agents, valinomycin and carbonylcyanide m-chlorophenylhydrazone (CCCP). Consistent with the literature reports (29,35,36), we observed a ladder of high molecular weight anti-Mfn2 cross-reactive bands above the 86 kDa Mfn2 protein band that is reminiscent of polyubiquitylation, in both ISG15-silenced and ISG15 overexpressing A-T cells (FIGS. 34 A and B, left panels). The endogenous level of these high molecular weight Mfn2 cross-reactive bands was remarkably higher in ISG15-silenced as compared to the ISG15-overexpressing A-T cells in the absence of any drugs (FIGS. 34A and B, first panels, compare lanes 1 and 4). […] In contrast, the level of these Mfn2 cross-reactive high molecular weight bands decreased under the same drug treatment conditions in ISG15-silenced A-T cells (FIGS. 34A and B, first panels, lanes 4-6, and the accompanying bar graph in the second panel for quantitation). […] The bar graphs in FIGS. 34A and B, third panels, show mean values of the ratio between free Mfn2 (86 kDa band) and actin proteins (±SEM) in CCCP-treated A-T/LV-control and ISG15 shRNA cells measured from eight independent experiments, and valinomycin-treated A-T/LV-control and ISG15 shRNA cells measured from three independent experiments respectively.

Row | SMILES | free Mfn2 degradation in CCCP-treated cells
1 | CO/C1=C\C(C)=C\[C@@H](C)[C@@H](O)[C@@H](C)C/C(C)=C/C=C/[C@H](OC)[C@@H]([C@@H](C)[C@@H](O)[C@H](C)[C@@]2(O)C[C@@H](O)[C@H](C)[C@@H](C(C)C)O2)OC1=O [Bafilomycin A1] | not
2 | CC(C)C[C@@H](C=O)NC(=O)[C@H](CC(C)C)NC(=O)[C@H](CC(C)C)NC(=O)OCc1ccccc1 [MG132] (Cbz-Leu-Leu-Leu-aldehyde) | restored
